The text below walks through data of US20220143148A1, “COMPOSITIONS AND METHODS FOR MODULATING CGRP SIGNALING TO REGULATE INTESTINAL INNATE LYMPHOID CELLS” (The Broad Institute, Inc., priority 2019, published 2022).

The subject of one assay is TDAG8 (GPR65). To be noted: cited from earlier work.
In another assay the target is T1, TDAG8 (Rattus norvegicus, UniProt A0A8I6AHC6).
T1 construct: host or cells: rat, in vivo (endogenous receptor)
To be noted: in vivo; cited from earlier work.

Assay [1] concerns KLRG1+ ILC2s. Kind of assay: In vitro proliferation assay (CellTrace Violet, flow cytometry). The class given is cell-based, mouse. To be noted: IL-25 with α-CGRP plus adenylate cyclase inhibitor. As to the method:
(§1) Flow cytometry and cell sorting. Cells were washed and suspended in MACS buffer (pH 7.4; PBS plus 2% FCS and 2 mM EDTA). Nonspecific antibody binding was blocked with CD16/CD32 (2.4G2) antibody for 15 min on ice. Cells were then stained with antibody cocktails for 30 min at 4° C. Lineage-positive cells were excluded for analyzing ILCs by staining for CD3ε (145-2C11), CD5 (53-7.3), CD19 (6D5), CD11b (M1/70), CD8 (53-6.7), CD11c (N418), Gr-1 (RB6-8C5), TCRγδ (eBioGL3 (GL-3, GL3)) and TCRβ (H57-597). To analyze mast cells, lineage-positive cells were excluded by staining for CD3ε, CD5, CD19, CD11c and SiglecF (E50-2440). For surface staining, antibodies for KLRG1 (2F1), CD45 (30-F11), CD127 (A7R34), CCR6 (29-2L17), NKp46 (29A1.4), CD90.2 (53-2.1), FcεRI (Mar-1), IgD (11-26c.2a) and ST2 (DJ8) were used. For intracellular staining, cells were fixed and permeabilized using the Foxp3 transcription factor staining buffer set, followed by staining with anti-GATA-3 (TWAJ) or anti-RORγt (B2D) antibodies. Dead cells were excluded with 7-AAD or Fixable Viability Dye eFluor 780. Flow cytometry was performed on Cytoflex (Beckman Coulter) and analyzed with FlowJo software. Sorting was performed with the SH800S Cell Sorter (Sony Biotechnology).
ILC2 culture. […]
(In general: In flow cytometry, cells or beads pass a laser one at a time.)

In assay [2] the test system is KLRG1+ ILC2s. Kind of assay: IL-25-induced in vivo ILC2 activation model. Set-up: species or system mouse. To be noted: IL-25 administration alone.
Excerpt: Intraperitoneal administration of α-CGRP impaired IL-25-induced expansion of KLRG1^+ ILC2s (FIGS. 5B and 12A), consistent with the in vitro results. Recent work has shown that intestinal KLRG1^+ ILC2s can migrate to mesenteric lymph nodes (mLNs) and other tissues during inflammation via sphingosine 1-phosphate (S1P)-mediated chemotaxis (Huang et al., 2018). To determine whether α-CGRP primarily impacts intestinal or mLN ILC2s, Applicants relied on the fact that intestinal GATA3^+ ILC2s are generally phenotypically KLRG1^+ST2^− (data not shown), whereas mLN ILC2s are mainly ST2^+ at steady state (FIG. 5C). IL-25 administration increased the frequency of both KLRG1^+ST2^− inflammatory ILC2s and ST2^+ ILC2s in mLNs (FIGS. 5C-E and 12B). […] Thus, α-CGRP preferentially regulates the response of intestinal KLRG1^+ST2^− ILC2s. […] Taken together, α-CGRP antagonized expansion of intestinal KLRG1^+ ILC2s in two different type 2 inflammatory models.
To activate ILC2s in vivo, 200 ng of IL-25 was intraperitoneally injected into 7-10 weeks old mice daily for two days. 1 μg α-CGRP was injected together as noted.
as §1
Immunofluorescence staining and imaging. The small intestines were fixed in 2% PFA, embedded in O.C.T. Compound and sliced into 10 μm by frozen section. The slides were blocked with 0.1% Triton X-100, 2% FCS and donkey serum. […] The images were analyzed with ImageJ.

The next assay relates to intestinal KLRG1+ ILC2s. Kind of assay: Bulk RNA-seq of intestinal KLRG1+ ILC2s stimulated in vitro. The class given is cell-based, mouse. The note with it: IL-25 alone in vitro. From the text:
To determine if α-CGRP can directly trigger signaling in ILC2s and impact their transcriptional states under inflammatory conditions, Applicants performed bulk RNA-seq of KLRG1^+ ILC2s isolated from the small intestine and stimulated in vitro with IL-25 alone or together with α-CGRP. […] Thus, α-CGRP inhibits IL-25-induced proliferation and activation of intestinal KLRG1+ILC2s.
The presence at homeostasis of α-CGRP receptors on ILC2s and α-CGRP's expression on ChAT^+ intestinal neurons led Applicants to hypothesize that it has an effect on ILC2s during homeostasis. To test this hypothesis, Applicants next measured the expression profiles of intestinal KLRG1^+ ILC2s stimulated in vitro by α-CGRP alone, and identified genes differentially expressed under this signal (FIG. 6D, Methods).
ILC2 culture. Sort-purified intestinal KLRG1^+ ILC2s were incubated in RPMI supplemented with 10% FCS, 10 mM Hepes, 1 mM sodium pyruvate, 10% FBS, 80 μm 2-mercaptoethanol, 2 mM glutamine, 100 U/ml penicillin, […] streptomycin, 100 ng/ml IL-2 and 100 ng/ml IL-7 in 96-well round bottom plate at 37° C. and 5% CO2. If indicated, the culture was supplemented with 100 ng/ml IL-25. For the in vitro proliferation assay, cells from different mice were pooled and labeled with CellTrace Violet, and then cultured at 1,000-1,500 cells per well with 10 μg/ml α-CGRP for 60 hours. When indicated, 10 μM forskolin or 1 μM SQ 22, 536 in DMSO was supplied and cells were cultured for 40 hours. For bulk RNA-seq, cells from individual mice were stimulated at 200 cells per well with 0.4 μg/ml α-CGRP for 3 hours. For bulk ATAC-seq, cells were stimulated with 0.4 μg/ml α-CGRP for 2 hours.
Bulk RNA-seq. 200 ILC2s from each condition were lysed in 10 ul TCL buffer plus 0.5% 2-Mercaptoethanol. Libraries were processed with SMART-Seq2 (Picelli et al., 2013) with at least three replicates per condition, and paired-end sequenced (75 bp×2) with a […] Nextseq 500 high output V2 kit.
Reads were aligned to the mouse reference genome (NCBI 38, mm10) using Bowtie (Langmead et al., 2009) with default parameters, and expression abundances were estimated using RSEM software (Li and Dewey, 2011). The differential gene expression analysis was performed with edgeR (Robinson et al., 2010) with default parameters.

T1 sequence (A0A8I6AHC6 1-337): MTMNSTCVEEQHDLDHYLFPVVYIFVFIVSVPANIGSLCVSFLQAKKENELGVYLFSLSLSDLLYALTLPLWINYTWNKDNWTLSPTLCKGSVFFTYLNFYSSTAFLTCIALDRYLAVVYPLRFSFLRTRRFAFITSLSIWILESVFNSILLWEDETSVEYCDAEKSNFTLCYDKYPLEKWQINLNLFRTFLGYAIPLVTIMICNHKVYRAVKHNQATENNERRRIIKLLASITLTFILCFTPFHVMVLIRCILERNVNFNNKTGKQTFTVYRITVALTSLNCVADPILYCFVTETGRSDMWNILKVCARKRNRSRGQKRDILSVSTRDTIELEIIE

Consider `CN1N=C(SCc2ccc(Cl)cc2Cl)Sc2c1cnn(C)c2=O` [BTB09089, 3-[(2,4-dichlorobenzyl)thio]-1,6-dimethyl-5,6-dihydro-1H-pyridazino[4,5-e][1,3,4]thiadiazin-5-one], for which, in the assay on TDAG8 (GPR65), the “TDAG8 activation in vitro” value is recorded as “activate”. In addition, the “efficacy in ischemic stroke murine disease model” value at TDAG8 is recorded as “in vivo efficacy”.
Take `Nc1ncnc2c1ncn2C1CCCO1` (stereo not drawn) [SQ22, 536, reference compound]: in the assay with KLRG1+ ILC2s [1], the “α-CGRP inhibition of ILC2 proliferation” value was “partially rescues”.

B1: IL-25: cytokine used to activate ILC2s in vitro and in vivo (protein, UniProt Q8VHH8 17-169, looked up)
Interleukin-25: VSLRIQEGCSHLPSCCPSKEQEPPEEWLKWSSASVSPPEPLSHTHHAESCRASKDGPLNSRAISPWSYELDRDLNRVPQDLYHARCLCPHCVSLQTGSHMDPLGNSVPLYHNQTVFYRRPCHGEEGTHRRYCLERRLYRVSLACVCVRPRVMA
Consider B1, for which, in the assay on KLRG1+ ILC2s [2], the “frequency of KLRG1+ST2− inflammatory ILC2s in mLNs” value is recorded as “increased” and the “frequency of ST2+ ILC2s in mLNs” value is reported as “increased”. In addition, the “activation phenotype (expression of type 2 cytokines Il13, Il5 and mitotic genes such as Myc)” value in the assay on intestinal KLRG1+ ILC2s is “induced the expected activation phenotype”.
